Molecules are shown by their SMILES. Converted amounts (≈) assume the structure as drawn.

This assay relates to S. pneumoniae ATCC 49619. Briefly: Minimal inhibitory concentration (MIC) by broth microdilution (CLSI M7-A7). It counts as cell-based, Streptococcus pneumoniae. The conditions noted are these: Streptococcus pneumoniae, ATCC49619; cation-adjusted Mueller Hinton Broth supplemented with 3% (v/v) lysed horse blood; microdilution method. The essentials: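 Broth microdilution per CLSI M7-A7 in cation-adjusted Mueller-Hinton broth with 3% (v/v) lysed horse blood for S. pneumoniae. MIC in mg/l.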
In general terms: In broth dilution the organism is exposed to a series of concentrations in liquid medium.
In the case of `CCNC(=O)Nc1cc2c(F)ccc(CNC(=O)OCCOC)c2cn1` [Example 151, [3-(3-ethyl-ureido)-5-fluoro-isoquinolin-8-ylmethyl]-carbamic acid 2-methoxy-ethyl ester], the MIC – broadly, the lowest concentration found to suppress growth – is 2 µg/mL (≈ 5.49 µM). For `CCNC(=O)Nc1cc2c(-c3ccncc3)ccc(CNC(=O)OCCc3cnn[nH]3)c2cn1` [Example 152, [3-(3-ethyl-ureido)-5-pyridin-4-yl-isoquinolin-8-ylmethyl]-carbamic acid 2-(3H-[1,2,3]triazol-4-yl)-ethyl ester] the value was 1 µg/mL (≈ 2.17 µM); for `CCNC(=O)Nc1cc2c(-c3ccnc(C)c3)ccc(CNC(C)=O)c2cn1` [Example 153, N-[3-(3-ethyl-ureido)-5-(2-methyl-pyridin-4-yl)-isoquinolin-8-ylmethyl]-acetamide], 1 µg/mL (≈ 2.65 µM). For `CCNC(=O)Nc1cc2c(-c3ccnc(C)c3)ccc(CNC(=O)C3CC3)c2cn1` [Example 154, cyclopropanecarboxylic acid [3-(3-ethyl-ureido)-5-(2-methyl-pyridin-4-yl)-isoquinolin-8-ylmethyl]-amide] the value was 0.5 µg/mL (≈ 1.24 µM); for `C#CC(=O)NCc1ccc(-c2ccnc(C)c2)c2cc(NC(=O)NCC)ncc12` [Example 155, propynoic acid [3-(3-ethyl-ureido)-5-(2-methyl-pyridin-4-yl)-isoquinolin-8-ylmethyl]-amide], 0.5 µg/mL (≈ 1.29 µM); for `CCNC(=O)Nc1cc2c(-c3ccnc(C)c3)ccc(CNC(=O)c3ncc[nH]3)c2cn1` [Example 156, 1H-imidazole-2-carboxylic acid [3-(3-ethyl-ureido)-5-(2-methyl-pyridin-4-yl)-isoquinolin-8-ylmethyl]-amide], 0.5 µg/mL (≈ 1.16 µM). As for `CCNC(=O)Nc1cc2c(-c3ccnc(C)c3)ccc(CNC(=O)CCOC)c2cn1` [Example 157, N-[3-(3-ethyl-ureido)-5-(2-methyl-pyridin-4-yl)-isoquinolin-8-ylmethyl]-3-methoxy-propionamide], the figure is 1 µg/mL (≈ 2.37 µM); as for `C#CCOC(=O)NCc1ccc(-c2ccnc(C)c2)c2cc(NC(=O)NCC)ncc12` [Example 158, [3-(3-ethyl-ureido)-5-(2-methyl-pyridin-4-yl)-isoquinolin-8-ylmethyl]-carbamic acid prop-2-ynyl ester], 0.5 µg/mL (≈ 1.2 µM); as for `CCNC(=O)Nc1cc2c(Cl)ccc(CNC(=O)OC)c2cn1` [Example 159, [5-chloro-3-(3-ethyl-ureido)-isoquinolin-8-ylmethyl]-carbamic acid methyl ester], 1 µg/mL (≈ 2.97 µM).

In turn, `CCNC(=O)Nc1cc2c(-c3ccnc(C4CC4)c3)ccc(CNC(=O)OC)c2cn1` [Example 160, [5-(2-cyclopropyl-pyridin-4-yl)-3-(3-ethyl-ureido)-isoquinolin-8-ylmethyl]-carbamic acid methyl ester] yielded a minimum inhibitory concentration (MIC) of 2 µg/mL (≈ 4.77 µM). As for `CCNC(=O)Nc1cc2c(-c3ccnc(F)c3)ccc(CNC(=O)OC)c2cn1` [Example 161, [3-(3-ethyl-ureido)-5-(2-fluoro-pyridin-4-yl)-isoquinolin-8-ylmethyl]-carbamic acid methyl ester], the figure is 0.5 µg/mL (≈ 1.26 µM); as for `CCNC(=O)Nc1cc2c(-c3ccnc(OC)c3)ccc(CNC(=O)OC)c2cn1` [Example 162, [3-(3-ethyl-ureido)-5-(2-methoxy-pyridin-4-yl)-isoquinolin-8-ylmethyl]-carbamic acid methyl ester], 1 µg/mL (≈ 2.44 µM).

Molecule `CCNC(=O)Nc1cc2c(-c3ccnc(N)c3)ccc(CNC(=O)OC)c2cn1` [Example 163, [5-(2-amino-pyridin-4-yl)-3-(3-ethyl-ureido)-isoquinolin-8-ylmethyl]-carbamic acid methyl ester] had an MIC of 0.5 µg/mL (≈ 1.27 µM). For `CCNC(=O)Nc1cc2c(-c3cc(C)nc(C)c3)ccc(CNC(=O)OC)c2cn1` [Example 164, [5-(2,6-dimethyl-pyridin-4-yl)-3-(3-ethyl-ureido)-isoquinolin-8-ylmethyl]-carbamic acid methyl ester] the value was 1 µg/mL (≈ 2.45 µM). As for `CCNC(=O)Nc1cc2c(-c3ccnc(C(F)(F)F)c3)ccc(CNC(=O)OC)c2cn1` [Example 165, [3-(3-ethyl-ureido)-5-(2-trifluoromethyl-pyridin-4-yl)-isoquinolin-8-ylmethyl]-carbamic acid methyl ester], the figure is 4 µg/mL (≈ 8.94 µM). Take `CCNC(=O)Nc1cc2c(-c3ccnc(OCC)c3)ccc(CNC(=O)OC)c2cn1` [Example 166, [5-(2-ethoxy-pyridin-4-yl)-3-(3-ethyl-ureido)-isoquinolin-8-ylmethyl]-carbamic acid methyl ester]: the MIC turned out to be 2 µg/mL (≈ 4.72 µM). In turn, `CCNC(=O)Nc1cc2c(-c3ccnc(OC(C)(C)C)c3)ccc(CNC(=O)OC)c2cn1` [Example 167, [5-(2-tert-butoxy-pyridin-4-yl)-3-(3-ethyl-ureido)-isoquinolin-8-ylmethyl]-carbamic acid methyl ester] gave an MIC of 4 µg/mL (≈ 8.86 µM). Turning to `CCNC(=O)Nc1cc2c(-c3ccnc(O)c3)ccc(CNC(=O)OC)c2cn1` [Example 168, [3-(3-ethyl-ureido)-5-(2-hydroxy-pyridin-4-yl)-isoquinolin-8-ylmethyl]-carbamic acid methyl ester], the MIC came to 8 µg/mL (≈ 20.2 µM). For `CCNC(=O)Nc1cc2c(-c3ccnc(N4CCOCC4)c3)ccc(CNC(=O)OC)c2cn1` [Example 169, [3-(3-ethyl-ureido)-5-(2-morpholin-4-yl-pyridin-4-yl)-isoquinolin-8-ylmethyl]-carbamic acid methyl ester] the value was 4 µg/mL (≈ 8.61 µM).

`CCNC(=O)Nc1cc2c(-c3ccnc(CC)c3)ccc(CNC(=O)OC)c2cn1` [Example 170, [5-(2-ethyl-pyridin-4-yl)-3-(3-ethyl-ureido)-isoquinolin-8-ylmethyl]-carbamic acid methyl ester] yielded an MIC of 1 µg/mL (≈ 2.45 µM). As for `CCNC(=O)Nc1cc2c(-c3ccnc(N4CCCC4)c3)ccc(CNC(=O)OC)c2cn1` [Example 171, [3-(3-ethyl-ureido)-5-(2-pyrrolidin-1-yl-pyridin-4-yl)-isoquinolin-8-ylmethyl]-carbamic acid methyl ester], the figure is 4 µg/mL (≈ 8.92 µM). Consider `CCNC(=O)Nc1cc2c(-c3cc(F)nc(F)c3)ccc(CNC(=O)OC)c2cn1` [Example 172, [5-(2,6-difluoro-pyridin-4-yl)-3-(3-ethyl-ureido)-isoquinolin-8-ylmethyl]-carbamic acid methyl ester], for which 1 µg/mL (≈ 2.41 µM) was the least that counted as inhibitory (MIC). Regarding `CCNC(=O)Nc1cc2c(-c3ccnc(OC(C)C)c3)ccc(CNC(=O)OC)c2cn1` [Example 173, [3-(3-ethyl-ureido)-5-(2-isopropoxy-pyridin-4-yl)-isoquinolin-8-ylmethyl]-carbamic acid methyl ester], it took 4 µg/mL (≈ 9.14 µM) to inhibit growth (MIC). Against the preceding molecule, the MIC is about 4-fold higher.

`CCNC(=O)Nc1cc2c(-c3ccnc(N4CCCCC4)c3)ccc(CNC(=O)OC)c2cn1` [Example 174, [3-(3-ethyl-ureido)-5-(3,4,5,6-tetrahydro-2H-[1,2′]bipyridinyl-4′-yl)-isoquinolin-8-ylmethyl]-carbamic acid methyl ester]: the MIC worked out at 4 µg/mL (≈ 8.65 µM). As for `CCNC(=O)Nc1cc2c(-c3ccnc(C)c3)ccc(CNC(=O)OC)c2cn1` [Example 175, [3-(3-ethyl-ureido)-5-(2-methyl-pyridin-4-yl)-isoquinolin-8-ylmethyl]-carbamic acid methyl ester], it took 0.5 µg/mL (≈ 1.27 µM) to inhibit growth (MIC). For `CCNC(=O)Nc1cc2c(-c3ccnc(C)c3)ccc(CNC(=O)OC(C)(C)C)c2cn1` [Example 176, [3-(3-ethyl-ureido)-5-(2-methyl-pyridin-4-yl)-isoquinolin-8-ylmethyl]-carbamic acid tert-butyl ester] the value was 1 µg/mL (≈ 2.3 µM). As for `CCNC(=O)Nc1cc2c(-c3ccnc(CCC(N)=O)c3)ccc(CNC(=O)OCCOC)c2cn1` [Example 177, [5-[2-(2-carbamoyl-ethyl)-pyridin-4-yl]-3-(3-ethyl-ureido)-isoquinolin-8-ylmethyl]-carbamic acid 2-methoxy-ethyl ester], the figure is 8 µg/mL (≈ 16.2 µM); as for `CCNC(=O)Nc1cc2c(-c3ccnc(CC(=O)OC(C)(C)C)c3)ccc(CNC(=O)OCCOC)c2cn1` [Example 178, (4-{3-(3-ethyl-ureido)-8-[(2-methoxy-ethoxycarbonylamino)-methyl]-isoquinolin-5-yl}-pyridin-2-yl)-acetic acid tert-butyl ester], 2 µg/mL (≈ 3.72 µM); as for `CCNC(=O)Nc1cc2c(-c3ccnc(C(N)=O)c3)ccc(CNC(=O)OCCOC)c2cn1` [Example 179, [5-(2-carbamoyl-pyridin-4-yl)-3-(3-ethyl-ureido)-isoquinolin-8-ylmethyl]-carbamic acid 2-methoxy-ethyl ester], 8 µg/mL (≈ 17.1 µM). In turn, `CCNC(=O)Nc1cc2c(-c3ccnc(C)c3)ccc(CN(C)C(=O)OC)c2cn1` [Example 180, [3-(3-ethyl-ureido)-5-(2-methyl-pyridin-4-yl)-isoquinolin-8-ylmethyl]-methyl-carbamic acid methyl ester] came in with a minimum inhibitory concentration (MIC) of 8 µg/mL (≈ 19.6 µM).

`CCNC(=O)Nc1cc2c(-c3ccnc(C)c3)ccc(CN(C)C(=O)OCCOC)c2cn1` [Example 181, [3-(3-ethyl-ureido)-5-(2-methyl-pyridin-4-yl)-isoquinolin-8-ylmethyl]-methyl-carbamic acid 2-methoxy-ethyl ester] returned an MIC of 8 µg/mL (≈ 17.7 µM).

As for `CCNC(=O)Nc1cc2c(-c3ccncc3)ccc(CNC(=O)OCCC(N)=O)c2cn1` [Example 182, [3-(3-ethyl-ureido)-5-pyridin-4-yl-isoquinolin-8-ylmethyl]-carbamic acid 2-carbamoyl-ethyl ester], the MIC was found to be 2 µg/mL (≈ 4.58 µM). For `CCNC(=O)Nc1cc2cccc(CNC(=O)c3cnn[nH]3)c2cn1` [Example 183, 3H-[1,2,3]triazole-4-carboxylic acid [3-(3-ethyl-ureido)-isoquinolin-8-ylmethyl]-amide], inhibition of growth (MIC) required 1 µg/mL (≈ 2.95 µM). Compared with the last molecule, the MIC is about 2-fold lower. As for `CCNC(=O)Nc1cc2c(-c3ccncc3F)ccc(CNC(=O)OC)c2cn1.Cl` [Example 184, [3-(3-ethyl-ureido)-5-(3-fluoro-pyridin-4-yl)-isoquinolin-8-ylmethyl]-carbamic acid methyl ester hydrochloride], the figure is 1 µg/mL.

The values above are taken from patent US8889676B2, “3-ureidoisoquinolin-8-yl derivatives” (Actelion Pharmaceuticals Ltd., priority 2011, dated 2014).
